Species on record: Rattus norvegicus
Assay: DrugMatrix - Regimen: Daily Repeat
Type: toxicity, organism-based, Sprague-Dawley
Set-up: regimen Daily Repeat, gender Male, age 6-8 weeks
Conditions: in vivo, po, route oral GAVAGE, […]; for ABSOLUTE BASOPHIL / ABSOLUTE EOSINOPHIL / ABSOLUTE LYMPHOCYTE / ABSOLUTE MONOCYTE / ABSOLUTE SEGMENTED NEUTROPHIL / BASOPHIL / EOSINOPHIL / ERYTHROCYTE COUNT / HEMATOCRIT / HEMOGLOBIN / LEUKOCYTE COUNT / LYMPHOCYTE / MEAN CORPUSCULAR HEMOGLOBIN / MEAN CORPUSCULAR HEMOGLOBIN CONCENTRATION / MEAN CORPUSCULAR VOLUME / MONOCYTE / NEUTROPHIL / NUCLEATED RED BLOOD CELLS / PLATELET COUNT: tissue Blood; for ALANINE AMINOTRANSFERASE / ALBUMIN / ALKALINE PHOSPHATASE / ASPARTATE AMINOTRANSFERASE / BLOOD UREA NITROGEN / CARBON DIOXIDE / CHLORIDE / CHOLESTEROL / CREATINE PHOSPHOKINASE / CREATININE / GLUCOSE / LACTATE DEHYDROGENASE / LIPASE / PHOSPHORUS / POTASSIUM / SODIUM / TOTAL BILIRUBIN / TOTAL PROTEIN / URIC ACID: tissue Plasma
[1] = 6 mg/kg, 120 h, dose level Low, time 5 day
[2] = 74 mg/kg, 72 h, dose level High, time 3 day
[3] = 74 mg/kg, 120 h, dose level High, time 5 day

Compound: CO[C@H]1O[C@@H]2O[C@@]3(C)CC[C@H]4[C@H](C)CC[C@@H]([C@H]1C)[C@@]24OO3
- ABSOLUTE BASOPHIL [1]: 0 CELLS/uL
- ABSOLUTE EOSINOPHIL [1]: 153 CELLS/uL
- ABSOLUTE LYMPHOCYTE [1]: 12396 CELLS/uL
- ABSOLUTE MONOCYTE [1]: 197.67 CELLS/uL
- ABSOLUTE SEGMENTED NEUTROPHIL [1]: 1920 CELLS/uL
- BASOPHIL [1]: 0%
- EOSINOPHIL [1]: 1%
- ERYTHROCYTE COUNT [1]: 5.88 x10E6/uL
- HEMATOCRIT [1]: 36.63%
- HEMOGLOBIN [1]: 13.47 G/DL
- LEUKOCYTE COUNT [1]: 14.67 x10E3/uL
- LYMPHOCYTE [1]: 84.33%
- MEAN CORPUSCULAR HEMOGLOBIN [1]: 22.93 pg
- MEAN CORPUSCULAR HEMOGLOBIN CONCENTRATION [1]: 36.8 G/DL
- MEAN CORPUSCULAR VOLUME [1]: 62.33 fL
- MONOCYTE [1]: 1.33%
- NEUTROPHIL [1]: 13.33%
- NUCLEATED RED BLOOD CELLS [1]: 0 /100WBC
- PLATELET COUNT [1]: 1198.67 x10E3/uL
- ALANINE AMINOTRANSFERASE [1]: 52.67 u/L
- ALBUMIN [1]: 4.37 G/DL
- ALKALINE PHOSPHATASE [1]: 430.33 u/L
- ASPARTATE AMINOTRANSFERASE [1]: 101 u/L
- BLOOD UREA NITROGEN [1]: 17.67 mg/dL
- CARBON DIOXIDE [1]: 23.33 mmol/L
- CHLORIDE [1]: 105.67 MEQ/L
- CHOLESTEROL [1]: 58.67 mg/dL
- CREATINE PHOSPHOKINASE [1]: 552.33 u/L
- CREATININE [1]: 0.16 mg/dL
- GLUCOSE [1]: 160 mg/dL
- LACTATE DEHYDROGENASE [1]: 887.67 u/L
- LIPASE [1]: 8.33 u/L
- PHOSPHORUS [1]: 11.77 mg/dL
- POTASSIUM [1]: 6.02 MEQ/L
- SODIUM [1]: 144.53 MEQ/L
- TOTAL BILIRUBIN [1]: 0.17 mg/dL
- TOTAL PROTEIN [1]: 5.93 G/DL
- URIC ACID [1]: 1.83 mg/dL
- ABSOLUTE BASOPHIL [2]: 0 CELLS/uL
- ABSOLUTE EOSINOPHIL [2]: 390 CELLS/uL
- ABSOLUTE LYMPHOCYTE [2]: 14550 CELLS/uL
- ABSOLUTE MONOCYTE [2]: 453 CELLS/uL
- ABSOLUTE SEGMENTED NEUTROPHIL [2]: 1407 CELLS/uL
- BASOPHIL [2]: 0%
- EOSINOPHIL [2]: 2.33%
- ERYTHROCYTE COUNT [2]: 5.21 x10E6/uL
- HEMATOCRIT [2]: 33.1%
- HEMOGLOBIN [2]: 12.6 G/DL
- LEUKOCYTE COUNT [2]: 16.8 x10E3/uL
- LYMPHOCYTE [2]: 86.67%
- MEAN CORPUSCULAR HEMOGLOBIN [2]: 24.23 pg
- MEAN CORPUSCULAR HEMOGLOBIN CONCENTRATION [2]: 38.07 G/DL
- MEAN CORPUSCULAR VOLUME [2]: 63.67 fL
- MONOCYTE [2]: 2.67%
- NEUTROPHIL [2]: 8.33%
- NUCLEATED RED BLOOD CELLS [2]: 0 /100WBC
- PLATELET COUNT [2]: 1173 x10E3/uL
- ALANINE AMINOTRANSFERASE [2]: 46 u/L
- ALBUMIN [2]: 4.13 G/DL
- ALKALINE PHOSPHATASE [2]: 349.67 u/L
- ASPARTATE AMINOTRANSFERASE [2]: 77.33 u/L
- BLOOD UREA NITROGEN [2]: 16 mg/dL
- CARBON DIOXIDE [2]: 27 mmol/L
- CHLORIDE [2]: 103.33 MEQ/L
- CHOLESTEROL [2]: 66.67 mg/dL
- CREATINE PHOSPHOKINASE [2]: 259.33 u/L
- CREATININE [2]: 0.23 mg/dL
- GLUCOSE [2]: 144.67 mg/dL
- LACTATE DEHYDROGENASE [2]: 331.33 u/L
- LIPASE [2]: 9.33 u/L
- PHOSPHORUS [2]: 10.07 mg/dL
- POTASSIUM [2]: 6.54 MEQ/L
- SODIUM [2]: 142.23 MEQ/L
- TOTAL BILIRUBIN [2]: 0.2 mg/dL
- TOTAL PROTEIN [2]: 5.63 G/DL
- URIC ACID [2]: 1.17 mg/dL
- ABSOLUTE BASOPHIL [3]: 0 CELLS/uL
- ABSOLUTE EOSINOPHIL [3]: 257.33 CELLS/uL
- ABSOLUTE LYMPHOCYTE [3]: 17040 CELLS/uL
- ABSOLUTE MONOCYTE [3]: 413.67 CELLS/uL
- ABSOLUTE SEGMENTED NEUTROPHIL [3]: 1822.33 CELLS/uL
- BASOPHIL [3]: 0%
- EOSINOPHIL [3]: 1.33%
- ERYTHROCYTE COUNT [3]: 6.13 x10E6/uL
- HEMATOCRIT [3]: 36.63%
- HEMOGLOBIN [3]: 13.57 G/DL
- LEUKOCYTE COUNT [3]: 19.53 x10E3/uL
- LYMPHOCYTE [3]: 87%
- MEAN CORPUSCULAR HEMOGLOBIN [3]: 22.17 pg
- MEAN CORPUSCULAR HEMOGLOBIN CONCENTRATION [3]: 37.03 G/DL
- MEAN CORPUSCULAR VOLUME [3]: 59.77 fL
- MONOCYTE [3]: 2%
- NEUTROPHIL [3]: 9.67%
- NUCLEATED RED BLOOD CELLS [3]: 0.33 /100WBC
- PLATELET COUNT [3]: 1300.33 x10E3/uL
- ALANINE AMINOTRANSFERASE [3]: 55.33 u/L
- ALBUMIN [3]: 4.3 G/DL
- ALKALINE PHOSPHATASE [3]: 329 u/L
- ASPARTATE AMINOTRANSFERASE [3]: 100 u/L
- BLOOD UREA NITROGEN [3]: 16.33 mg/dL
- CARBON DIOXIDE [3]: 25 mmol/L
- CHLORIDE [3]: 102.67 MEQ/L
- CHOLESTEROL [3]: 51.67 mg/dL
- CREATINE PHOSPHOKINASE [3]: 790.67 u/L
- CREATININE [3]: 0.21 mg/dL
- GLUCOSE [3]: 171.67 mg/dL
- LACTATE DEHYDROGENASE [3]: 649.67 u/L
- LIPASE [3]: 9.67 u/L
- PHOSPHORUS [3]: 12.37 mg/dL
- POTASSIUM [3]: 5.73 MEQ/L
- SODIUM [3]: 143.53 MEQ/L
- TOTAL BILIRUBIN [3]: 0.13 mg/dL
- TOTAL PROTEIN [3]: 5.8 G/DL
- URIC ACID [3]: 1.73 mg/dL
